# Values of other authors, collected in patent US20220175695A1, “FORTIFICANT COMPOSITION” (Conopco, Inc., d/b/a UNILEVER, priority 2019, published 2022).
# Conditions: without the composition
substance,measurement,value
Vitamin A,time Vitamin A is stable in the presence of water,< 4 h
